Experimental findings from patent publication US20250295790A1, “LECTIN-TARGETING CONJUGATES” (Helmholtz-Zentrum für Infektionsforschung GmbH, priority 2021, published 2025) are described below.

Usually Kd stands for the concentration at which binding is half-saturated. Read a high Kd as a looser complex.

Entries after “also recorded” stand apart in the source; their conditions may differ. Where no end group is shown, it is not given here. [ ]: non-standard residue; d: D form. Nba = nitrobenzyl amine (quencher); 2Abz = Nc1ccccc1C(=O)O

Data set [1] addresses T1, LecA (Pseudomonas aeruginosa, UniProt Q05097).
T1 construct: made in house
Briefly: Direct titration of fluorescent ligand with LecA in fluorescence polarization assay. In kind it is binding.

Data set [2] has as its target T1, LecA. Put plainly: Surface plasmon resonance with LecA. In kind it is binding. The procedure: Surface plasmon resonance experiments were performed on a BIACORE X100 instrument (GE Healthcare) at 25° C. as described by Zahorska et. al. 2020. Averages and standard deviations were calculated from three independent experiments.
For orientation: Surface plasmon resonance follows binding to a sensor surface in real time, without labels.

Data set [3] is described as follows: Stability in aqueous buffer. In kind it is physicochemical. As to conditions: Tris buffer (TBS/Ca2+), after 24 h.
Data set [4] addresses T1, LecA. Put plainly: Isothermal titration calorimetry with LecA. In kind it is binding. The procedure:
Isothermal titration calorimetry was performed on an iTC200 (Malvern Panalytical) and the data were analyzed using Microcal Origin software (Malvern Panalytical). LecA in the cell was titrated with ligand in TBS/Ca^2+ buffer supplemented with 5% DMSO at 25° C. Steep titration slopes were the result of high amount of protein present and the high binding affinity of the ligand (high ‘value of c’).
Isothermal titration calorimetry was performed on an iTC200 (Malvern Panalytical) and the data were analyzed using Microcal Origin software (Malvern Panalytical).
(In general: In ITC the heat of successive injections is recorded.)

Data set [5] has as its system P. aeruginosa PAO1 biofilms. Put plainly: P. aeruginosa biofilm staining in the flow cell. In kind it is cell-based, Pseudomonas aeruginosa PAO1. As to conditions: 500 nM in medium, 4 h accumulation, flow 3 mL/h. As for the experimental part:
Colonies of PAO1 wt labelled with the red fluorescent protein mCherry (pMP7605) were picked from a LB agar plate and transferred to 10 mL LB medium with Gentamicin 60 μg/ml to start an overnight culture. Incubation was done at 37° C. and 180 rpm overnight. A fresh culture was inoculated to an OD600nm of 0.02 (10 mL LB with Gentamicin 60 μg/mL) and incubated until the exponential growth phase was reached (OD600nm of 0.4 to 0.8). The bacterial suspension was diluted again to an OD600m of 0.1 and 300 μL were injected into a six-channel μ-slide (ibidi, Germany). The settling time was 30 min. The flow of 1:5 diluted LB medium with Gentamicin 60 μg/ml was 3 mL/h. The biofilms were grown in a heat system (ibidi, Germany) at 30° C. and for 48 h.
After 48 h of biofilm growth, aggregates were stained by supplementing the divalent LecA ligand 57 and Fluorescein disodium salt 58 as a control to the medium. The final concentration of the supplements in the medium was 500 nM and constantly accumulated within the biofilm for 4 h by a flow rate of 3 mL/h. Washing was performed for 30 min with LB 1:5 diluted with Gentamicin 60 μg/mL.
Analysis was done by using a fluorescence microscope Leica DMi8. […] The green fluorescein signal was detected by an excitation wavelength of 460 to 500 nm and an emission wavelength of 512 to 542 nm. Snapshots were normalized by using the Fiji software. […]

A short description of data set [6]: Cleavage / stability in PA14-filtrate without human blood plasma. In kind it is in vitro ADME, Pseudomonas aeruginosa PA14. Particulars: up to 24 h. As for the experimental part:
P. aeruginosa PA14 was streaked on LB-agar plates (1% agar) from glycerol stocks and incubated at 37° C. overnight. 2-5 colonies were picked and dispersed in 10 mL LB (10 g/L trypton, 10 g/L NaCl, 5 g/L yeast extracts). This dispersion was incubated overnight at 37° C., 180 rpm under high humidity. The culture was centrifuged (4000 ref, room temperature, 10 min) and the supernatant was filtered (0.22 m pore size). […]
A 1 mM solution of the studied compound was prepared in PBS (150 mM NaCl, 2.6 mM KCl, 1.4 mM KH2PO4, 10 mM Na2HPO4, pH 7.4) with 20% DMSO. 50 μL of this solution was diluted in 950 μL matrix or human plasma (spiked with 10% LB) on ice. After brief vortex, 100 μL were immediately treated with 100 μL ice-cold MeCN (spiked with […] diphenhydramine as internal standard). The rest of the solution was incubated at 37° C. and 500 rpm in an eppendorf thermomixer. At various time points (30, 60, 120, 180 min), 100 L sample were taken and treated as described above. […] The AUC of the parent drug and its cleavage products and the internal standard was quantified using Compass QuantAnalysis quantification software. The relative AUC was calculated by AUC (compound)/AUC(ISTD). Procaine was used as a positive control as it readily degrades in human plasma.

The next data set concerns the target T2, MMP-2 (Homo sapiens, UniProt P08253).
T2 sequence (P08253 110-660): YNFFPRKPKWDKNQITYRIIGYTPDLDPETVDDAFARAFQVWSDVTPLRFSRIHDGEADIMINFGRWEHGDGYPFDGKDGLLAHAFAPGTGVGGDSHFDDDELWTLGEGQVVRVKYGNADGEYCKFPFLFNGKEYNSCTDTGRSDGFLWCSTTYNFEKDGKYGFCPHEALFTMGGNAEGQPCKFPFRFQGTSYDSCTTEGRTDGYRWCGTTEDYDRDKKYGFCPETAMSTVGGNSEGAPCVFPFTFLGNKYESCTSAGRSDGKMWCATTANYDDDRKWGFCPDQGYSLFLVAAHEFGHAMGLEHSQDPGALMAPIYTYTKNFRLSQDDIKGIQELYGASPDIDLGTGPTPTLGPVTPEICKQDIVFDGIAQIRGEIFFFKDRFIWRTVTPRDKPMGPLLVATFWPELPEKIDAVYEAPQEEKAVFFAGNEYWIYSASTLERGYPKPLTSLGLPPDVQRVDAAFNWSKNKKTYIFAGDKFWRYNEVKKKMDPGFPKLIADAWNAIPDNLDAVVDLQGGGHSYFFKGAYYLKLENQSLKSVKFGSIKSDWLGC
Briefly: FRET-based cleavage assay with MMP-2. In kind it is biochemical. As to conditions: serial dilution of activated MMP-2.

Data set [7] deals with T3, LecA-targeted prodrug 36 (peptide-based prodrug with the linker Ala-Gly-Leu-Ala, SEQ ID NO 3, between a LecA-targeting galactoside and fluoroquinolone 2).
T3 sequence: AGLA

The test system of data set [8] is T4, LasB cleavable substrate Abz-Ala-Gly-Leu-Ala-Nba (SEQ ID NO 3, labelled).
T4 sequence: AGLA

T1 sequence (Q05097 whole entry): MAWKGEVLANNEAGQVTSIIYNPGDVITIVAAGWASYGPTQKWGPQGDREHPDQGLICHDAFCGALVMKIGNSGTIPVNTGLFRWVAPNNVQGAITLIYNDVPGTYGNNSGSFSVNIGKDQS
Protocol for MMP-2: MMP-2 (50 μL, 0.2 μg/mL in 20 mM tris pH 7.5, 8 mM CaCl2, 119 mM NaCl, 20% Glycerol, 0.05% Brij 35, Cat #SAE0174-50UG, Sigma-Aldrich) was activated with 1 mM APMA (from 100 mM DMSO stock, Cat #AS—71158, AnaSpec) for 1 h at 37° C. Then, dilution series of the activated MMP-2 and of PA14-filtrate were prepared in PBS. SensoLyte 520 generic MMP substrate (Cat #AS—71158, AnaSpec) was diluted 1:100 in PBS. […] 10 μL dilution series was mixed with 10 μL MMP substrate or LasB substrate and fluorescence (λex=490 mn, λem=520 nm and λex=320 mn, λem=420 nm, for MMP substrate and LasB substrate, respectively) was recorded for 10 min (10 s interval).

Turning to `O=C(CCc1ccc(O[C@@H]2OC(CO)[C@H](O)C(O)C2O)cc1)Nc1ccc(CN(CCc2cn(CCOCCOCCOCCNC(=S)Nc3ccc4c(c3)C(=O)OC43c4ccc(O)cc4Oc4cc(O)ccc43)nn2)Cc2ccc(NC(=O)CCc3ccc(O[C@@H]4OC(CO)[C@H](O)C(O)C4O)cc3)cc2)cc1` (stereo partly shown) [Compound 57], the Kd was 1050 nM at LecA [1]; 19.3 ± 10.5 nM at LecA [2]; “High affinity” at LecA [4] (ITC, TBS/Ca2+ buffer, 5% DMSO, 25° C.). For the same compound, the degradation in buffer entry in data set [3] is given as “did not show any degradation”.
Take `CC1=CC(C)=[N+]2C1=Cc1ccc(CCC(=O)NCCCN=[N+]=[N-])n1[B-]2(F)F` [BDP FL azide]: the biofilm staining entry in [5] is given as “did not show any enrichment”.
Consider `CC(C)C[C@H](N)C(=O)N[C@@H](C)C(=O)N[C@H]1CCN(c2cc3c(cc2F)c(=O)c(C(=O)O)cn3C2CC2)C1` [Compound 35, 7-((S)-3-((S)-2-((S)-2-amino-4-methylpentanamido)propanamido)pyrrolidin-1-vl)-1-cyclopropyl-6-fluoro-4-oxo-1,4-dihydroquinoline-3-carboxylic acid], for which, in data set [6], the “release of free drug from dipeptide-conjugates” value is “very slow; also recorded: only slowly released their antibiotic cargo”.
Consider “Abz-Ala-Gly-Leu-Ala-Nba ([2Abz]AGLA-Nba) [LasB-substrate]”, for which the “cleavage of FRET substrate by MMP-2” value with MMP-2 was “rather stable; also recorded: very weak turnover”.
Consider `C#CCCN(Cc1ccc(NC(=O)CCc2ccc(O[C@@H]3OC(CO)[C@H](O)C(O)C3O)cc2)cc1)Cc1ccc(NC(=O)CCc2ccc(O[C@@H]3OC(CO)[C@H](O)C(O)C3O)cc2)cc1` (stereo partly shown) [Compound 55], for which the Kd at LecA [2] was 9.9 ± 0.5 nM; on LecA [4], 47.2 ± 11.3 nM.
`CC(C)C[C@H](N)C(=O)N[C@@H](C)C(=O)N1CCN(c2cc3c(cc2F)c(=O)c(C(=O)O)cn3C2CC2)CC1` [Compound 19, Leu-Ala-ciprofloxacin-conjugate]: the “release of free drug from dipeptide-conjugates” value in data set [6] was “very slow; also recorded: only slowly released their antibiotic cargo”.
With `CC(C)C[C@H](NC(=O)CNC(=O)[C@H](C)NC(=O)CCCCCn1cc(CCN(Cc2ccc(NC(=O)CCc3ccc(O[C@@H]4OC(CO)[C@H](O)C(O)C4O)cc3)cc2)Cc2ccc(NC(=O)CCc3ccc(O[C@@H]4OC(CO)[C@H](O)C(O)C4O)cc3)cc2)nn1)C(=O)N[C@@H](C)C(=O)N[C@H]1CCN(c2cc3c(cc2F)c(=O)c(C(=O)O)cn3C2CC2)C1` (stereo partly shown) [Compound 68], the Kd at LecA [4] came out at 36 ± 48 nM.
With “matrix-metalloprotease 2 (MMP-2), activated with APMA”, in data set [7], the “Stability of prodrug 36 in presence of activated MMP-2, monitored by HPLC-MS” value was “No detectable metabolism was observed after 20 min or 3 d at 37 °C”. The “turnover of the LasB-substrate in a FRET-based cleavage assay (serial dilution of activated MMP-2)” value in data set [8] was “Only a very weak turnover of the LasB-substrate was observed in a FRET-based cleavage assay at very high concentrations (>50 ng/mL final) of MMP-2”.
